Where two headings read alike, the source gives them in different places.
Experiments:
primary cortical neurons = assay: Hemin-induced toxicity in primary cortical neurons (MTT, LIVE/DEAD); assay type: cell-based; conditions: for EC50: primary cortical neurons, MTT assay, read-out: EC50 for abrogating hemin toxicity
Text: (§1) FIGS. 1A-1L: Structurally diverse HIF PHD inhibitors stabilize HIF-1 and abrogate toxicity induced by hemin, a byproduct of blood breakdown, in cortical neurons hippocampal neuroblasts and striatal neuroblasts (not shown).
(§2) Secondary injury from ICH has been attributed to hemin, a breakdown product of hemoglobin (from lysed red blood cells). To investigate the mechanisms of hemin toxicity to neurons in vitro, this experiment exposed primary cortical neurons, immortalized hippocampal neuroblasts (HT22 cells), and immortalized striatal neuroblasts (Q7 cells) to hemin for 24 hours. As expected, a dose dependent loss in viability as measured by MTT reduction or LIVE/DEAD assay in all three cell types was observed. […] To examine whether iron-dependent HIF PHD enzymes can be modulated to protect neurons from hemin-induced toxicity, this experiment examined structurally diverse inhibitors of the HIF PHDs: desferoxamine, cyclopirox, and dihydroxybenzoic acid. […] To test this notion further using a chemical biological approach, the protective effects of cyclopirox, a HIF PHD inhibitor, and a cyclopirox analog with no PHD inhibitory activity but with similar metal binding affinity to cyclopirox were compared. As expected, only the cyclopirox analog with PHD inhibitory activity was neuroprotective.

[1] = system: immortalized hippocampal neuroblasts (HT22 cells); assay: Hemin-induced toxicity in hippocampal neuroblasts (MTT); assay type: cell-based; conditions: MTT assay, read-out: EC50 for abrogating hemin toxicity
Text: as §1
as §2, with “neuroprotective. […]” for “neuroprotective.”

[2] = system: immortalized striatal neuroblasts (Q7 cells); assay: Hemin-induced toxicity in striatal neuroblasts (MTT); assay type: cell-based; conditions: MTT assay, read-out: EC50 for abrogating hemin toxicity
Text: as §1, §2

HIF-1 protein = HIF-1 protein stabilisation in primary neurons (Western blot); assay type: cell-based; conditions: primary neurons, Western blot
Text: FIGS. 1A-1L: Structurally diverse HIF PHD inhibitors stabilize HIF-1 and abrogate toxicity induced by hemin, a byproduct of blood breakdown, in cortical neurons hippocampal neuroblasts and striatal neuroblasts (not shown). […] FIGS. 6A-6I. […] Expression of ATF4 was forced into primary neurons, which induces death of these neurons by MTT assay (FIG. 6D) or LIVE/DEAD staining, Green is live, Red is dead (FIG. 6E).

HIF PHDs [3] = assay: ODD-luciferase reporter mice, in vivo bioluminescence imaging and tissue lysates; conditions: in vivo bioluminescence imaging; intraperitoneal; adaptoquin 30 mg/kg
Text: FIGS. 3A-3G. Validation of adaptoquin as a novel HIF PHD inhibitor. […] Under steady state conditions, activity of HIF PHD2 with its co-substrate 2-oxoglutarate involves two peaks that represent non-hydroxylated and hydroxylated peptide. The hydroxylated peptide disappears in the presence of HIF PHD2 inhibition by adaptoquin. […] The reporter contains the ODD domain of HIF-1 which confers HIF PHD regulated stability on it. It is expressed in all cells of the body, but is destabilized in the absence of HIF PHD inhibition and stabilized in its presence. Quantitative measurements confirm stability of the ODD-luc in brain, kidney and liver (FIGS. 3D and 3E.).
To identify HIF PHD inhibitors suitable for testing in ICH, the experiment first sought to identify which of the known HIF PHD inhibitors could penetrate the blood brain barrier to inhibit HIF PHD activity in the CNS. To monitor HIF PHD activity dynamically, the experiment utilized mice that had previously been engineered to ubiquitously express the oxygen degradation domain (ODD) of HIF-1α fused to firefly luciferase. The ODD domain contains proline 402 and 564, which are hydroxylated by the HIF PHDs to degrade HIF-1 or the ODD-luciferase. Accordingly, these mice have been used previously to track HIF PHD activity in diverse organs in vivo using in vivo bioluminescence imaging.
To verify that the changes in light in the brain reflect parenchymal changes in ODD-luciferase levels rather than increases in changes in skin or dural ODD-luciferase, ODD-luciferase activity was measured normalized to total protein in lysates from distinct brain regions using a luminometer.

HIF PHDs [4] = assay: ODD-luciferase cell based assay

Structure (SMILES) | EC50 (primary cortical neurons) [µM] | EC50 [1] [µM] | EC50 [2] [µM] | Stabilisation of HIF-1 protein (HIF-1 protein) | ODD-luciferase activity in brain (HIF PHDs [3]) | ODD-luciferase activity in cell based assays (HIF PHDs [4]) | EC50 (primary cortical neurons; Primary cortical neuron) [µM] | Prevention of hemin-induced death (primary cortical neurons; neurons, FIGS. 1M, 1O-1R)
CC(=O)N(O)CCCCCNC(=O)CCC(=O)N(O)CCCCCNC(=O)CCC(=O)N(O)CCCCCN [Desferoxamine] | 34.1 | 50.8 | 26.7 | stabilize HIF-1 protein | failed to increase ODD-luciferase activity in the brain | induced the ODD-luciferase activity in cell based assays |  | 
Cc1cc(C2CCCCC2)n(O)c(=O)c1 [cyclopirox] |  |  |  | stabilize HIF-1 protein | failed to increase ODD-luciferase activity in the brain | induced the ODD-luciferase activity in cell based assays | 1.4 | prevents hemin-induced death

Reference: patent publication US10716783B2, “Prolylhydroxylase/ATF4 inhibitors and methods of use for treating neural cell injury or death and conditions resulting therefrom” (CORNELL UNIVERSITY, priority 2013, dated 2020)
